The text below walks through data of patent publication US20250367111A1, “DELIVERY OF SUSTAINED LOCAL AND SYSTEMIC IMMUNOMODULATION” (Northeastern University, priority 2024, published 2025).

Data set [1] has as its system TNBC. As to conditions: cited from earlier work.
The conditions of data set [2]: intratumoral; 40 patients with advanced metastatic solid tumors or lymphomas; cited from earlier work.
Data set [3] in a line: Blood cell count with Procyte Dx Analyzer after oral TLZ. The class given is in vivo. The note with it: BRCA−/− breast cancer mice, indicative of bone marrow toxicity. An excerpt: PARPi have been limited due to induction of bone marrow toxicity.
For data set [4], the system named is mammary glands of BRCA1-deficient mice. Briefly: Cancer biomarkers (PCNA, γ-H2AX) in mammary glands of BRCA1-deficient mice. It is filed as in vivo. The note with it: mammary glands harvested 4 weeks after treatment. The method, then: InCeT-TLZ favorably alters cancer biomarkers compared with systemic administration or empty implants. Mammary glands were harvested 4 weeks after BRCA1-deficient mice were treated with implants (InCeT-TLZ or empty InCeT) or free TLZ. As shown in, over half of the epithelial cells in the mammary glands of mice treated with empty InCeT were positive for PCNA, confirming robust proliferation.

Data set [5] deals with BRCA−/− model with conditional BRCA1/2, PTEN, and TP53 deletions (mFT3666). Briefly: Survival in BRCA−/− mOC model (mFT3666). The note with it: free TLZ; control ~57 days. The class given is in vivo, mice. The method, then:
Sustained PARP inhibition doubles survival in BRCA^−/− mOC model. Therapeutic efficacy was tested in vivo in a BRCA^−/− model with conditional BRCA1/2, PTEN, and TP53 deletions (mFT3666) that mimics late stage disseminated disease. Free TLZ slowed disease progression and extended median survival to ˜70 days, compared with control (˜57 days). These animals eventually developed severe ascites and had to be sacrificed. A InCeT-TLZ implant loaded with 50 μg of TLZ was injected into the peritoneal cavity using an 18 gauge needle every 25 days. Most of the InCeT-TLZ group of animals survived until 93 days, with some developing ascites.

In data set [6] the test system is Brca2−/−p53−/−R172H Pten−/− intraperitoneal disseminated metastatic ovarian cancer model. The experiment in a line: Survival in intraperitoneal disseminated metastatic ovarian cancer model. The class given is in vivo. The note with it: i.p.; 50 μg TLZ over 21 days (implant or equivalent dose by periodic injections). How it is done:
In a Brca2^−/−p53^−/−R172H Pten^−/− intraperitoneal disseminated metastatic ovarian cancer model, SMAART-TLZ i.p implants (50 μg TLZ release over 21 days) increased median survival to 92 days compared to periodic i.p injections of TLZ at the equivalent drug dose over 21 days (70 days median OS-FIG. 6A).

For data set [7] the following is noted: EMBRACA, cited from earlier work.

As to `O=C(c1cc(Cc2n[nH]c(=O)c3ccccc23)ccc1F)N1CCN(C(=O)C2CC2)CC1` [olaparib], in data set [1] (human, in vivo), the “overall response rate (ORR)” value is reported as 59.9%. Further, in data set [1] (vs. 4.2 months standard chemotherapy), the “progression-free survival (PFS)” value was 7 months.
Regarding `Nc1ncnc2c1ncn2[C@@H]1O[C@@H]2COP(=O)([S-])O[C@@H]3[C@H](O)[C@@H](COP([O-])(=S)O[C@H]2[C@H]1O)O[C@H]3n1cnc2c(N)ncnc21.[Na+].[Na+]` (stereo partly shown) [ADU-S100], in data set [2], the dose-limiting toxicities result is given as “no dose-limiting toxicities”.
With `Cn1ncnc1[C@H]1c2n[nH]c(=O)c3cc(F)cc(c23)N[C@@H]1c1ccc(F)cc1` [TLZ, Talazoparib], the red blood cells entry in data set [3] is recorded as “decrease in red blood cells”. Besides, the “reduction of PCNA+ cells” value in data set [4] is around 50%. The γ-H2AX expression result in data set [4] is reported as “but not free TLZ increased γ-H2AX expression”. Also, the results for the median survival in data set [5] and in data set [6] were around 70 days and 70 days, respectively. Moreover, the “patients with adverse events” value in data set [7] is reported as 65%. Besides, in data set [7] (of those patients), the “patients with adverse events needing dose reduction below the therapeutic level” value is given as 53%.
